In patent US10807968B2, “Substituted 2-(het)arylimidazolylcarboxyamides as pesticides” (Bayer CropScience Aktiengesellschaft, priority 2016, dated 2020):

Key:
[1] = log P determination by HPLC on reversed-phase (C18) columns, OECD Guideline 117; type: physicochemical; conditions: HPLC
In short: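 Reversed-phase C18 HPLC per OECD 117, LC-MS with a linear 10% to 95% acetonitrile gradient. Acidic method at pH 2.7 with 0.1% formic acid; neutral method at pH 7.8 with 0.001 M ammonium hydrogencarbonate.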

[2] = test system: Meloidogyne incognita; test: Meloidogyne incognita test; type: in vivo; conditions: 20 ppm, after 14 days, lettuce in sand
Protocol: Meloidogyne Incognita Test
Solvent: 125.0 parts by weight of acetone
To produce a suitable active compound formulation, 1 part by weight of active compound is mixed with the stated amount of solvent and the concentrate is diluted with water to the desired concentration.
Vessels are filled with sand, active compound solution, an egg/larvae suspension of the southern root-knot nematode (Meloidogyne incognita) and lettuce seeds. The lettuce seeds germinate and the plants develop. The galls develop on the roots.
After 14 days, the nematicidal efficacy in % is determined by the formation of galls. 100% means that no galls were found; 0% means that the number of galls on the treated plants corresponds to the untreated control.

[3] = test system: Myzus persicae; test: Myzus persicae - spray test (Chinese cabbage leaf discs); type: in vivo; conditions: 500 g/ha, after 6 days
In short: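 Leaf discs of Chinese cabbage carrying all aphid stages sprayed with compound formulated in acetone/DMF and water with 1000 ppm alkylaryl polyglycol ether emulsifier. Kill rate scored after 6 days as % efficacy (100% all aphids dead, 0% none).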

[4] = test system: Myzus persicae; test: Myzus persicae - oral test; type: in vivo; conditions: 20 ppm, after 5 days
Protocol: Solvent: 100 parts by weight of acetone
Subsequently, the plates are sealed with parafilm, which a mixed population of green peach aphids (Myzus persicae) within a second microtitre plate is able to puncture and imbibe the solution through it.
After 5 days, the efficacy in % is determined. 100% means that all the aphids have been killed; 0% means that no aphids have been killed.

**Q.** With `CN(C(=O)c1cnc(-c2cccc3c2OCO3)n1C)c1cccnc1` [Example 83] as the molecule, how does the logp-acidic ([1]; acidic range pH 2.7, 0.1% aqueous formic acid/acetonitrile) read?
**A.** 0.9

**Q.** What about the logp-neutral ([1]; neutral range pH 7.8, 0.001 molar aqueous ammonium hydrogencarbonate/acetonitrile) of the same molecule?
**A.** 1.44

**Q.** What about the “nematicidal efficacy in % (formation of galls)” value [2] of the same molecule?
**A.** 100%

**Q.** And the “efficacy in % (aphids killed)” value [3]?
**A.** 90%

**Q.** What about the “efficacy in % (aphids killed)” value [4] of the same molecule?
**A.** 100%
